Common to all, as to assay: growth of human tumour cells (NCI), 48 h
The subject of assay [1] is 786-0 renal.
The test system of assay [2] is CCRF-CEM leukemia.
Assay [3] relates to EKVX NSCLC.
Assay [4] concerns HCC-2998 colon.
Assay [5] relates to HL-60(TB) leukemia.
Assay [6] deals with HOP-62 NSCLC.
Assay [7] concerns K-562 leukemia.
Assay [8] concerns LOX IMVI melanoma.
In assay [9] the test system is M14 melanoma.
The test system of assay [10] is MALME-3M melanoma.
Assay [11] concerns MCF7 breast.
Assay [12] deals with MDA-MB-231 breast.
Assay [13] concerns MDA-MB-435.
The subject of assay [14] is MDA-N.
Assay [15] relates to OVCAR-5 ovarian.
The test system of assay [16] is SNB-19 CNS.
In assay [17] the test system is T-47D breast.
Assay [18] deals with TK-10 renal.
Assay [19] concerns RXF 393 renal.
Assay [20] concerns SW-620 colon.

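Where inhibition never reached the appropriate level, the endpoint shown equals the highest concentration tested. Otherwise, values were interpolated linearly from a five-concentration, 48-hour dose response in 96-well plates. TGI denotes the concentration required for complete inhibition of growth.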 A value given as a limit tells only on which side of the number the result lay.

On to `O=C1CSC(/C=C/c2ccccc2)N1c1ccc(-n2c(-c3ccccc3)nc3ccccc3c2=O)cc1` (configuration not stated), for which the TGI in assay [1], in assay [2], in assay [3], in assay [4], in [5] and in assay [6] was over 100 µM each time. For the same compound, the TGI in [7], in assay [8], in assay [9], in assay [10], in assay [11] and in assay [12] was over 100 µM each time. Further, the TGI in [13], in assay [14], in assay [15], in assay [16], in assay [17] and in [18] was over 100 µM each time.

Regarding `Cc1cc(=O)[nH]c2c3c(ccc12)OC(C)(C)C=C3`, the TGI in [1] was over 62.7 µM; in assay [2] it was over 100 µM; in assay [3], over 63.7 µM; in assay [4] it was over 96.1 µM; in assay [5], over 100 µM; in [6] it was over 100 µM. In addition, the TGI is over 100 µM in assay [7]; over 100 µM in assay [9]; over 100 µM in [10]; over 100 µM in assay [11]; over 100 µM in [12]; 4.9 µM in assay [13]. Moreover, the TGI in assay [14] is 4.29 µM; in assay [15], over 66.1 µM; in assay [19], over 31.4 µM; in assay [16] it was over 67.3 µM; in [20], over 100 µM; in assay [17] it was over 100 µM. Also, the TGI in assay [18] is over 100 µM.

In the case of `Cc1cc(C)c2c(c1)C(=O)C1(C2)Cc2c(ccc(C)c2C)C1=O` (configuration not stated), the TGI in assay [1], in assay [2], in assay [3], in assay [4], in assay [5] and in assay [7] was over 100 µM in each case. Also, the TGI in assay [8], in assay [9], in [10], in [11], in assay [12] and in assay [13] was over 100 µM each time. Moreover, the TGI in assay [14], in assay [19], in [16], in assay [20], in assay [17] and in assay [18] was over 100 µM in each case.

Regarding `COc1ccc2[nH]c3c(C)c4cnccc4c(C)c3c2c1`, the TGI was 1.64 µM in assay [1]; over 10 µM in [2]; over 10 µM in assay [3]; 3.35 µM in assay [4]; 4.64 µM in assay [5]; 2.78 µM in [6]. Also, the TGI was over 10 µM in assay [7]; 2.54 µM in assay [9]; 2.82 µM in [10]; 3.9 µM in [11]; 6.77 µM in assay [12]; 2.84 µM in assay [13]. Moreover, the TGI in assay [14] is 3.43 µM; in assay [15], over 10 µM; in [19] it was 6.02 µM; in assay [16] it was over 10 µM; in assay [20], 3.4 µM; in assay [17], over 10 µM. This compound showed a TGI in assay [18] of over 10 µM.

In the case of `Cc1cc(=O)oc2c(CNC(C(=O)O)C(C)O)c(O)ccc12` (configuration not stated), the TGI in assay [1], in [2], in [3], in assay [5], in assay [6] and in [7] was over 100 µM each time. The TGI in assay [8], in [9], in [10], in [11], in [12] and in assay [13] was over 100 µM throughout. The TGI in [14], in assay [15], in assay [19], in [16], in [20] and in [17] was over 100 µM throughout. Besides, in [18], the TGI is over 100 µM.

Turning to `COc1ccc(C(=O)c2ccc(-n3c4ccccc4c4ccc5c(c43)C(=O)C=CC5=O)cc2)cc1`, the TGI in [1] was 1.3 µM; in assay [3] it was 4.32 µM; in [4], 11.5 µM; in assay [6], 28.7 µM; in assay [7], over 100 µM; in assay [8], 4.31 µM. Besides, the TGI in assay [9] stood at 7.45 µM; in assay [11] it was 2.6 µM; in [12], 5.22 µM; in [13], 3.14 µM; in [14], 7.89 µM; in [15] it was 40.3 µM. Also, the TGI in assay [19] is 16 µM; in assay [16], 11 µM; in assay [17], over 100 µM; in [18], 3.76 µM.

For `CC1CC(NN(C)C)C2(C(N)=O)C(N)=NC(=O)C12C#N` (configuration not stated), the TGI in assay [1], in assay [2], in assay [3], in assay [4], in assay [6] and in [7] was over 100 µM in each case. Moreover, the TGI in assay [8], in [9], in [10], in assay [11], in assay [12] and in assay [13] was over 100 µM each time. Besides, the TGI in assay [14], in assay [15], in [19], in [16], in assay [20] and in assay [17] was over 100 µM in each case. For the same compound, the TGI in [18] is over 100 µM.

With `COc1ccc(-n2c(=O)n(C)c(=O)n2-c2c(C)c(C)c(C)c(C)c2C)cc1`, the TGI in assay [1], in assay [2], in assay [3], in assay [4], in assay [6] and in assay [7] was over 100 µM throughout. Also, the TGI in [8], in assay [9], in [10], in assay [11], in assay [12] and in assay [13] was over 100 µM throughout. Also, the TGI in assay [14], in assay [15], in assay [19], in assay [16], in assay [20] and in assay [17] was over 100 µM each time. Besides, the TGI in [18] is over 100 µM.

(Values after PubChem BioAssay (NCI).)
